Patent US20070099907A1 (priority 2002, published 2007)
Entries after “also recorded” stand apart in the source; their conditions may differ.

How the values were obtained:
[1] = test system: endothelial COX-2 expression; conditions: cited from earlier work
arthritic patients = conditions: compared to patients treated with naproxen; cited from earlier work
[2] = test system: patients with acute coronary syndromes without ST-segment elevation; experiment: Open, randomized, single-blind pilot study of meloxicam added to aspirin and heparin: cardiovascular events; type: in vivo, human
Procedure: (§1) Patients were recruited from the Centro de Salud and the Centro Modelo de Cardiologia, Tucuman, Argentina. Inclusion criteria were chest pain within the previous 24 hours associated with ST-segment depression (>0.5 mm) and either ECG evidence of ischemia or previously documented coronary artery disease. Exclusion criteria were persistent ST-segment elevation and increased levels of the MB isoenzyme of creatine kinase (CK-MB) consistent with acute myocardial infarction, revascularization procedures within the preceding 6 months, malignancy, pregnancy, renal or hepatic diseases, use of anticoagulant therapy, treatment with anti-inflammatory drugs, or contraindication of the study drugs. […] Both groups received aspirin for 30 days. The dose range was 100 to 300 mg per day at the discretion of the treating physician. CK-MB levels were measured before randomization. Additional assays were performed after an episode of chest pain to confirm the diagnosis of acute MI. All patients received subcutaneous LMWH (either nadroparin 87 IU/kg BID or enoxaparin 1 mg/kg BID) or intravenous UFH given as an initial bolus of 5000 IU followed by continuous infusion at 1000 IU per hour for 7 days or until discharge from the hospital. The activated partial-thromboplastin time (APTT) was used to assess the degree of anticoagulation in patients receiving intravenous unfractionated heparin. Patients were tested every 12 hours on the first day and every 24 hours subsequently. The APTT was maintained in the range 45 to 87 seconds (normal value, 30±5 seconds).
[…] An additional secondary composite variable was determined: MI, death, and all revascularization procedures (percutaneous transluminal coronary angioplasty [PTCA] or coronary artery graft surgery [CABG]). Each component of the primary and secondary outcome variable was also recorded separately. […] Cardiac catheterization was performed at the discretion of treating physicians, but only urgent PTCA and CABG, usually after recurrent angina or MI, were considered as end points. Revascularization procedures were indicated after recurrence of chest pain refractory to medical treatment. During CCU stay and after discharge, all patients were examined for clinical events by an investigator who was unaware of treatment allocation. Patients were also instructed to report any events to study personnel immediately. The diagnostic criteria for MI were chest pain lasting 20 minutes or more with ECG changes and an at least 2-fold elevation of CK-MB. Recurrent angina was defined as recurrence of chest pain with ECG changes refractory to medical therapy (aspirin, heparin, nitroglycerin, and β-blockers).
Relative risks (RRs) and their 95% CI were obtained. The RR reduction (RRR) is defined as 1 minus RR and expressed as percentage. The absolute risk reduction (ARR) was calculated as the difference between the risk in control patients minus the risk in treated patients and expressed as percentage. A multiple logistic regression model was used to determine the predictive value of the variables associated with events at day 90 in the previous univariate analysis. The software used were CSS/Statistics 3.1 (StatSoft Corp) and EPI INFO 6 v.6.04, 1996.

[3] = after bolus intravenous dose of 15 mg meloxicam; cited from earlier work
[4] = test system: activated partial-thromboplastin time (APTT); experiment: Activated partial thromboplastin time after unfractionated heparin in the pilot study; type: in vivo, human; conditions: for Activated Partial Thromboplastin Time, Mean ± SD: patients treated with unfractionated heparin; for Activated Partial Thromboplastin Time, Median: unfractionated heparin
Procedure: as §1
The nature of the quantitative variables distribution was assessed by the Shapiro-Wilk test. Differences between the 2 treatment groups were analyzed by the Student's t test (independent samples) or the Mann-Whitney test, according to the nature of the distribution. Differences in terms of activated partial thromboplastin time after unfractionated heparin were assessed by a 2-way ANOVA model, with repeated measures in one of the factors (Student Newman-Keuls post-hoc test). Univariate associations between qualitative variables were assessed by X^2 (Yates corrected) and Spearman rank-order correlations.

[5] = test system: patients with acute coronary syndromes without ST-segment elevation; experiment: Safety observations in the pilot study; type: in vivo, human; conditions: throughout the course of the study; meloxicam 15 mg/day + aspirin + heparin
Procedure: as §1, with “An open, randomized, prospective, single-blind pilot study of the use of meloxicam in ACS patients without ST-segment elevation was performed. Patients” for “Patients”, “The activated partial-thromboplastin time (APTT) was used to assess the degree of anticoagulation in patients receiving intravenous unfractionated heparin. Patients were tested every 12 hours on the first day and every 24 hours subsequently. The APTT was maintained in the range 45 to 87 seconds (normal value, 30±5 seconds).” left out

[6] = test system: postischemic cardiac dysfunction; conditions: cited from earlier work
patients who had an ACS = conditions: cited from earlier work
[7] = 90-day follow-up, cumulative, n=60 per group
[8] = 90-day follow-up, meloxicam group vs control
[9] = 90-day follow-up, meloxicam group vs control, listed as meloxicam
[10] = CCU period, meloxicam group vs control
[11] = CCU period, meloxicam group vs control, listed as meloxicam
[12] = CCU period, n=60 per group, listed as meloxicam

CC(=O)Oc1cc(C(F)(F)F)ccc1C(=O)O [triflusal]
inhibitory activity against endothelial COX-2 expression [1]: very little inhibitory activity

CS(=O)(=O)c1ccc(C2=C(c3ccccc3)C(=O)OC2)cc1 [rofecoxib]
risk of heart attack (arthritic patients): five-fold higher risk of heart attack

Cc1cnc(NC(=O)C2=C(O)c3ccccc3S(=O)(=O)N2C)s1 [Meloxicam, 4-hydroxy-2-methyl-N-(5-methyl-2-thiazolyl)-2H-1,2-benzothiazine-3-carboxamide-1,1-dioxide]
MI + death + revascularization, % (secondary composite) [2, 7]: 13.3% | MI + death + revascularization, n (secondary composite) [2, 7]: 8 n | Recurrent angina + MI + vascular death, % (primary composite) [2, 7]: 21.7% | Recurrent angina + MI + vascular death, n (primary composite) [2, 7]: 13 n | Recurrent angina, % [2, 7]: 20.0% | Recurrent angina, % ([2]; 90-day follow-up, cumulative, n=60 per group, listed as meloxicam): 20% | ARR %, MI + death + revascularization [2, 8]: 20.0% | ARR %, recurrent angina [2, 8]: 23.3% | ARR %, revascularization [2, 8]: 18.3% | RRR (95% CI), recurrent angina [2, 8]: 53.8 (17-74) % | RRR (95% CI), recurrent angina + MI + vascular death [2, 8]: 55.1 (22-74) % | RRR (95% CI), revascularization [2, 8]: 61.0 (14-82) % | RRR (95% CI), MI + death + revascularization [2, 9]: 60.1% | RRR (95% CI), recurrent angina [2, 9]: 53.8% | RRR (95% CI), recurrent angina + MI + vascular death [2, 9]: 55.1% | RRR (95% CI), revascularization [2, 9]: 61% | Revascularization, % ([2]; 90-day follow-up, n=60 per group): 11.7% | Recurrent angina, % ([2]; CCU period, meloxicam + aspirin + heparin vs control aspirin + heparin, n=60 per group): 15.0% | ARR %, MI + death + revascularization [2, 10]: 16.7% | ARR %, all revascularization [2, 10]: 15.0% | ARR %, recurrent angina [2, 10]: 20.0% | ARR %, recurrent angina + MI + vascular death [2, 10]: 23.3% | RRR (95% CI), MI + death + revascularization [2, 10]: 62.5 (11-84) % | RRR (95% CI), all revascularization [2, 10]: 60.1% | RRR (95% CI), recurrent angina [2, 10]: 57.1 (14-79) % | RRR (95% CI), recurrent angina + MI + vascular death [2, 10]: 60.8 (23-80) % | ARR %, all revascularization [2, 11]: 15% | ARR %, recurrent angina [2, 11]: 20% | RRR (95% CI), MI + death + revascularization [2, 11]: 62.5% | RRR (95% CI), all revascularization [2, 11]: 60.8% | RRR (95% CI), recurrent angina [2, 11]: 57.1% | RRR (95% CI), recurrent angina + MI + vascular death [2, 11]: 60.8% | All revascularization, % ([2]; CCU period, n=60 per group): 10.0% | MI + death + revascularization, % (secondary composite) ([2]; CCU period, n=60 per group): 10.0% | MI + death + revascularization, n (secondary composite) ([2]; CCU period, n=60 per group): 6 n | Recurrent angina + MI + vascular death, % (primary composite) ([2]; CCU period, n=60 per group): 15.0% | Recurrent angina + MI + vascular death, n (primary composite) ([2]; CCU period, n=60 per group): 9 n | MI + death + revascularization, % (secondary composite) [2, 12]: 10% | Recurrent angina + MI + vascular death, % (primary composite) [2, 12]: 15% | patients reaching the additional secondary outcome variable (MI, death, revascularization) ([2]; at 30 days): 11.7% | patients reaching the primary outcome variable (recurrent angina, MI, or death) ([2]; at 30 days): 20.0% | improvement of the ARR in recurrent angina ([2]; during the 30-day treatment period): 3.3% | decrease of the triple end points (recurrent angina, MI and vascular death or MI, death and coronary revascularization procedures) ([2]; meloxicam with aspirin and heparin, ACS without ST-segment elevation): 60% | patients reaching the primary outcome variable (recurrent angina, MI, or death) ([2]; within 48 hours of randomization): 1.7% | Cmax [3]: 3000 ng/mL | tmax [3]: 3 min | Activated Partial Thromboplastin Time, Mean ± SD ([4]; Day 1): 55.8 ± 26.4 s | Activated Partial Thromboplastin Time, Median ([4]; Day 1): 48 s | Activated Partial Thromboplastin Time, Mean ± SD ([4]; Day 2): 69.6 ± 19.9 s | Activated Partial Thromboplastin Time, Median ([4]; Day 2): 62 s | Activated Partial Thromboplastin Time, Mean ± SD ([4]; Day 3): 89.9 ± 24.4 s | Activated Partial Thromboplastin Time, Median ([4]; Day 3): 86 s | Activated Partial Thromboplastin Time, Mean ± SD ([4]; Day 4, control vs meloxicam P < 0.05): 89.3 ± 20.8 s | Activated Partial Thromboplastin Time, Median ([4]; Day 4): 84.5 s | adverse complications (bleeding complications, side effects, intolerance) [5]: No adverse complications; also recorded: No bleeding complications, side effects, or intolerance

CC(=O)Oc1ccccc1C(=O)O [ASA, acetylsalicylic acid]
aggravation of postischemic cardiac dysfunction [6]: aggravates postischemic cardiac dysfunction | reduction of combined incidence of cardiovascular death, MI and stroke (patients who had an ACS): 25%
